The results in this text go back to patent US8124609B2, “Acyclic nucleoside derivatives” (Medivir AB, priority 1996, dated 2012).

Assay type in all cases: in vivo
The subject of series [1] is Herpes simplex virus-1 (HSV-1). Kind of series: Antiviral activity in HSV-1-infected mouse (survival). The settings on record: 21 and 83 mg/kg p.o. three times daily for 5 days, relative to equivalent dose of acyclovir. As for the experimental part: Herpes simplex virus-1 (HSV-1)-infected mouse serves as an animal model to determine the efficacy of antiviral agents in vivo. Mice inoculated intraperitoneally with HSV-1 at 1000 times the LD50 were administered either with a formulation comprising the currently marketed anti-herpes agent acyclovir (21 and 83 mg/kg in a 2% propylene glycol in sterile water vehicle, three times daily, p.o.) or the compound of Example 29 (21 and 83 mg/kg in a 2% propylene glycol in sterile water vehicle, three times daily, p.o.) for 5 consecutive days beginning 5 hours after inoculation. The animals were assessed daily for deaths. […] In the legend, the compound of the invention is denoted Ex. 29 and acyclovir is denoted ACV.

A short description of series [2]: Bioavailability testing in rats (24 h urinary H2G recovery). To be noted: rat; for Bioavailability (Table 2): 0.1 mmol/kg per oral, 24 hour urinary H2G recovery as percentage of recovery after 0.1 mmol/kg i.v. H2G. On the procedure: The bioavailability of compounds of the invention were compared to the parent compound H2G and other H2G derivatives in a rat model. Compounds of the invention and comparative compounds were administered, per oral (by catheter into the stomach), to multiples of three individually weighed animals to give 0.1 mmol/kg of the dissolved prod rug in an aqueous (Example 4, 5, Comparative example 1-3, 5, 8), peanut oil (Comparative examples 4, 9, 10) or propylene glycol (Example 1-3, 6-12, 17, Comparative example 6, 7) vehicle dependent on the solubility of the test compound ingredient. The animals were fasted from 5 hours before to approximately 17 hours after administration and were maintained in metabolic cages. Urine was collected for the 24 hours following administration and frozen until analysis. H2G was analysed in the urine using the HPLC/UV assay of Stahle & Öberg, Antimicrob Agents Chemother. 36 No 2, 339-342 (1992), modified as follows: samples upon thawing are diluted 1:100 in aq dist H2O and filtered through an amicon filter with centrifugation at 3000 rpm for 10 minutes. Duplicate 30 μl samples are chromatographed on an HPLC column; Zorbax SB-C18; 75×4.6 mm; 3.5 micron; Mobile phase 0.05M NH4PO4, 3-4% methanol, pH 3.3-3.5; 0.5 ml/min; 254 nm, retention time for H2G at MeOH 4% and pH 3.33, ˜12.5 min. Bioavailability is calculated as the measured H2G recovery from each animal averaged over at least three animals and expressed as a percentage of the averaged 24 hour urinary H2G recovery from a group of 4 individually weighed rats respectively injected i.vjugularis with 0.1 mmol/kg H2G in a Ringer's buffer vehicle and analysed as above.
Comparative example 1 (H2G) was from the same batch as used for preparation of Examples 1 to 12. The preparation of Comparative example 2 (monoVal-H2G) and 3 (diVal-H2G) are shown in Examples 21 and 23. […] Comparative examples 5 & 8 (Val/Ac H2G) were prepared analogously to Example 4 using acetic anhydride with relevant monovaline H2G. […]

Series [3] is described as follows: Plasma concentrations in rats (plasma drug assay, H2G AUC oral vs i.v.). The settings on record: rat, 10 mg/kg oral dose in propylene glycol, plasma H2G AUC vs 10 mg/kg intravenous H2G. As for the experimental part:
A plasma concentration assay was done in male Sprague Dawley derived rats. The animals were fasted overnight prior to dosing but were permitted free access to water. Each of the compounds evaluated was prepared as a solution/suspension in propylene glycol at a concentration corresponding to 10 mg H2G/ml and shaken at room temperature for eight hours. Groups of rats (at least 4 rats in each group) received a 10 mg/kg (1 ml/kg) oral dose of each of the compounds; the dose was administered by gavage. At selected time points after dosing (0.25, 0.5, 1, 1.5, 2, 4, 6, 9, 12, 15, and 24 hours after dosing), heparinized blood samples (0.4 ml/sample) were obtained from a tail vein of each animal. The blood samples were immediately chilled in an ice bath. Within two hours of collection, the plasma was separated from the red cells by centrifugation and frozen till analysis. The components of interest were separated from the plasma proteins using acetonitrile precipitation. Following lyophilisation, and reconstitution, the plasma concentrations were determined by reverse phase HPLC with fluorescence detection. The oral uptake of H2G and other test compounds was determined by comparison of the H2G area under the curve derived from the oral dose compared to that obtained from a 10 mg/kg intravenous dose of H2G, administered to a separate group of rats. The results are depicted in Table 1B above.

On to `CCCCCCCCCCCCCCCCCC(=O)OC[C@H](CCOC(=O)[C@@H](N)C(C)C)Cn1cnc2c(=O)[nH]c(N)nc21.Cl` [Example 29], for which the “percentage of mice surviving the HSV-1 infection” value in series [1] is listed as “significantly greater”.

Take `CC(=O)CCCC(=O)OC[C@H](CCOC(=O)[C@@H](N)C(C)C)Cn1cnc2c(=O)[nH]c(N)nc21` [Example 10]: the “Bioavailability (Table 2)” value in series [2] is 52%.

In the case of `Nc1nc2c(ncn2CC(CO)CCO)c(=O)[nH]1` (centres unmarked) [Comparative example 1, 9-[4-hydroxy-(2-hydroxymethyl)butyl]guanine], the “Bioavailability (Table 2)” value in series [2] is 8%. In addition, the “Bioavailability (Table 1A)” value in series [2] (oral, urinary recovery assay of H2G, relative to i.v. H2G) came out at 8%. In addition, the “Bioavailability (Table 1B)” value in series [3] came out at 3.8%.
